Assay results: paper PMC8238916 (Nature chemical biology, 2021)

Experiments:
TEX cells [1] = experiment: Western blot in TEX cells; format: cell-based, human; settings: 4 days
TEX cells [2] = experiment: Gene expression; format: cell-based, human; settings: 96 hours
TEX cells [3] = experiment: Cell viability assay; format: cell-based, human
[4] = target: T1, RING1B RING domain (residues 10-116) as it stands in RING1B-BMI1f (UniProt Q99496 10-116); experiment: crystal structure
T1 sequence: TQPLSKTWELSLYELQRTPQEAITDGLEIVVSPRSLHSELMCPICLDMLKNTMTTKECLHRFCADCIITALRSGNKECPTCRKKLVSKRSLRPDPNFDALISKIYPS

Molecule	H2Aub, BMI1 and H2A levels (TEX cells [1])	C/EBPα and CD34 expression (TEX cells [2])	cytotoxicity compared with RB-3 (TEX cells [3])	binding result [4]
COc1cc(Br)c(Nc2nc(-c3c(C)nc4ncccn34)cs2)c(Br)c1 [PTC209]	decreased H2Aub, reduced BMI1 level and, unexpectedly, reduced H2A levels	had no effect on C/EBPα and CD34 expression	more cytotoxic to TEX cells than RB-3	–
BMI1 RING domain (residues 1-104) as it stands in RING1B-BMI1f (domain or fragment) MHRTTRIKITELNPHLMCVLCGGYFIDATTIIECLHSFCKTCIVRYLETSKYCPICDVQVHKTRPLLNIRSDKTLQDIVYKLVPGLFKNEMKRRRDFYAAHPSA	–	–	–	binds
